Results published in patent US4322428A, “2(4-Fluorophenyl)-4,5,-bis(4-methoxyphenyl)thiazole and method of use” (Eli Lilly and Company, priority 1980, dated 1982).

Each molecule was assayed on writhing in Cox standard strain albino male mice (assay: mouse-writhing test (analgesic), acetic acid-induced writhing). Details: oral (p.o.), corn oil-acacia emulsion, writhing induced by intraperitoneal 0.55% (55 mg/kg) acetic acid, read-out: ED50 (effective dosage needed to inhibit 50% of the writhing).
Type: in vivo
Procedure: An intraperitoneal injection of 0.55% (55 mg/kg.) acetic acid induces writhing in the mice, which is characterized by contraction of the abdominal musculature, extension of the hindlegs, and rotation of the trunk. The compounds were administered in a corn oil-acacia emulsion. The number of writhes is counted for both the control and treated animals and the percent inhibition computed as follows: [formula]
All dosages were given orally (p.o.) and are expressed in mg/kg. The term "ED50 " means an effective dosage needed to inhibit 50% of the writhing.

In order of rising ED50:
1. COc1ccc(-c2nc(-c3ccc(F)cc3)sc2-c2ccc(OC)cc2)cc1 [2-(4-Fluorophenyl)-4,5-bis(4-methoxyphenyl)thiazole]  0.82 mg/kg
2. COc1ccc(-c2nc(-c3ccc(Br)cc3)sc2-c2ccc(OC)cc2)cc1 [2-(4-Bromophenyl)-4,5-bis(4-methoxyphenyl)thiazole]  1.46 mg/kg
3. COc1ccc(-c2nc(-c3ccccc3)sc2-c2ccc(OC)cc2)cc1 [2-Phenyl-4,5-bis(4-methoxyphenyl)thiazole]  2.3 mg/kg
4. COc1ccc(-c2nc(-c3ccc(Cl)cc3)sc2-c2ccc(OC)cc2)cc1 [2-(4-Chlorophenyl)-4,5-bis(4-methoxyphenyl)thiazole]  3.75 mg/kg
